Results reported in patent US5391744A (priority 1993, dated 1995).
“Also recorded” adds a separate entry of the source. Where two headings read alike, the source gives them in different places.

Assays:
dopamine transporter = dopamine transporter (Rattus norvegicus, UniProt P23977); test: displacement of [^3 H]mazindol binding from rat striatal membranes
rats = test: casual observation of animals treated with 2c; details: 0.8 mg/kg 2c; 24 hours following administration
[1] = tested on: rats trained to discriminate cocaine
[2] = target: T1, dopamine transporter (high-affinity uptake of [^3 H]dopamine into striatal nerve endings) (Rattus norvegicus, UniProt P23977); test: inhibition of high-affinity uptake of [^3 H]dopamine into striatal nerve endings (synaptosomes); assay type: biochemical
T1 construct: striatal nerve endings (synaptosomes); from tissue; host or cells: striatal nerve endings (synaptosomes)
T1 sequence (P23977 whole entry): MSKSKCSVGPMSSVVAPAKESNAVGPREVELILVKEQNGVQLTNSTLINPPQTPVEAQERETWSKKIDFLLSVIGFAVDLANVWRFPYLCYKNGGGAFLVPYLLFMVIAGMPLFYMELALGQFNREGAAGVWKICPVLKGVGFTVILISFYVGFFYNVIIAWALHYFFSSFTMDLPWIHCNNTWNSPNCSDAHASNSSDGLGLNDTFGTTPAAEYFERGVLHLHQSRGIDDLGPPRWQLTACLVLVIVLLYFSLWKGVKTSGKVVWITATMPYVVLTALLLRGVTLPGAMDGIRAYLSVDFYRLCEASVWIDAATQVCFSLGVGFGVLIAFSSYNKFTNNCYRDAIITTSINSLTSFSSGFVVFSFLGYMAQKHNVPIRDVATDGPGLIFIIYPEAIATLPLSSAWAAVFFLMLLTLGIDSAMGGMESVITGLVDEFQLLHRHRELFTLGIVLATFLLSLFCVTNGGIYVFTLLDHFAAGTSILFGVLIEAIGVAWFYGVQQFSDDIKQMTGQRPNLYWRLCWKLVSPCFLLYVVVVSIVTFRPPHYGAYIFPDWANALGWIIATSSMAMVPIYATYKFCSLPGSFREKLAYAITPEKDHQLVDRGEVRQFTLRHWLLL

[3] = tested on: rats trained to discriminate cocaine; test: animal or person; details: Rattus norvegicus, ip, read-out: ED50 (50% cocaine-appropriate responding)
[4] = 0.05 mg/kg, 30 min, mean ± S.E.M.
[5] = 0.05 mg/kg, 120 min, mean ± S.E.M.
[6] = 0.05 mg/kg, 240 min, mean ± S.E.M.
[7] = 0.1 mg/kg, 30 min, mean ± S.E.M.
[8] = 0.1 mg/kg, 120 min, mean ± S.E.M.
[9] = 0.1 mg/kg, 240 min, mean ± S.E.M.
[10] = 0.2 mg/kg, 30 min, mean ± S.E.M.
[11] = 0.2 mg/kg, 240 min, mean ± S.E.M.
[12] = 0.4 mg/kg, 30 min, mean ± S.E.M.
[13] = 0.4 mg/kg, 120 min, mean ± S.E.M.
[14] = 0.4 mg/kg, 240 min, mean ± S.E.M.
[15] = 0.8 mg/kg, 30 min, mean ± S.E.M.

Sequence of dopamine transporter (P23977 whole entry): as above

## C=C[C@H]1[C@@H](c2ccc(Cl)cc2)C[C@@H]2CC[C@H]1N2C [Compound 2c, 3β-(4-Chlorophenyl)-2β-vinyltropane]
Dopamine transporter
  IC50: 1.2 ± 0.3 nM
Dopamine transporter; relative to ester counterpart 1d
  potency compared with 1d: slightly more potent than the "Win" type compound 1d; also recorded: slightly more potent than its ester counterpart 1d
rats
  hyperactivity: still hyperactive 24 hours following administration
[1]; 0.05 mg/kg, 30 min
  n/N (animals completing 20 responses / tested): 7/7
[1]; [4]
  % Drug responses: 19 ± 4%
  Rate (responses/min): 29.6 ± 9 responses/min
[1]; 0.05 mg/kg, 120 min
  n/N (animals completing 20 responses / tested): 7/7
[1]; [5]
  % Drug responses: 22 ± 14%
  Rate (responses/min): 18.4 ± 6 responses/min
[1]; 0.05 mg/kg, 240 min
  n/N (animals completing 20 responses / tested): 7/7
[1]; [6]
  % Drug responses: 14 ± 14%
  Rate (responses/min): 28.3 ± 5 responses/min
[1]; 0.1 mg/kg, 30 min
  n/N (animals completing 20 responses / tested): 7/7
[1]; [7]
  % Drug responses: 40 ± 17%
  Rate (responses/min): 37.1 ± 6 responses/min
[1]; 0.1 mg/kg, 120 min
  n/N (animals completing 20 responses / tested): 7/7
[1]; [8]
  % Drug responses: 75 ± 16%
  Rate (responses/min): 25.7 ± 5 responses/min
[1]; 0.1 mg/kg, 240 min
  n/N (animals completing 20 responses / tested): 7/7
[1]; [9]
  % Drug responses: 61 ± 17%
  Rate (responses/min): 23.5 ± 4 responses/min
[1]; 0.2 mg/kg, 30 min
  n/N (animals completing 20 responses / tested): 7/7
[1]; [10]
  % Drug responses: 83 ± 10%
  Rate (responses/min): 26.2 ± 6 responses/min
[1]; 0.2 mg/kg, 120 min
  n/N (animals completing 20 responses / tested): 7/7
[1]; 0.2 mg/kg, 120 min, mean
  % Drug responses: 100%
[1]; 0.2 mg/kg, 120 min, mean ± S.E.M.
  Rate (responses/min): 46.8 ± 9 responses/min
[1]; 0.2 mg/kg, 240 min
  n/N (animals completing 20 responses / tested): 7/7
[1]; [11]
  % Drug responses: 98 ± 1%
  Rate (responses/min): 47.9 ± 10 responses/min
[1]; 0.4 mg/kg, 30 min
  n/N (animals completing 20 responses / tested): 7/7
[1]; [12]
  % Drug responses: 99 ± 1%
  Rate (responses/min): 52.8 ± 9 responses/min
[1]; 0.4 mg/kg, 120 min, * intense stereotypic response, failed to complete session
  n/N (animals completing 20 responses / tested): 3/5
[1]; [13]
  % Drug responses: 72 ± 28%
  Rate (responses/min): 24.9 ± 18 responses/min
[1]; 0.4 mg/kg, 240 min, * intense stereotypic response, failed to complete session
  n/N (animals completing 20 responses / tested): 4/5
[1]; [14]
  % Drug responses: 91 ± 9%
  Rate (responses/min): 23.6 ± 18 responses/min
[1]; 0.8 mg/kg, 30 min
  n/N (animals completing 20 responses / tested): 7/7
[1]; [15]
  % Drug responses: 93 ± 5%
  Rate (responses/min): 33.5 ± 9 responses/min
[1]; 0.8 mg/kg, 120 min
  % Drug responses: 95%
  Rate (responses/min): 7.7 responses/min
[1]; 0.8 mg/kg, 120 min, * intense stereotypic response, failed to complete session
  n/N (animals completing 20 responses / tested): 1/7
[1]; 0.8 mg/kg, 240 min
  % Drug responses: 100%
[1]; 0.8 mg/kg, 240 min, * intense stereotypic response, failed to complete session
  n/N (animals completing 20 responses / tested): 3/7
[1]; 0.8 mg/kg, 240 min, mean ± S.E.M.
  Rate (responses/min): 39.1 ± 1 responses/min
[1]; 0.2 and 0.4 mg/kg, 30 min injection period
  complete cocaine-like responding: induced complete cocaine-line responding in all animals
[1]; in words, across test doses
  response rates: stable across the different test doses of 2c, with the exception of the highest dose (0.8 mg/kg) of 2c which reduced response rates
[1]; in words, dose-dependence over the tested doses
  substitution for the cocaine cue / drug-appropriate responding: dose-dependent substitution for the cocaine cue
[1]; in words, injection interval 30-240 min
  duration of action: long duration of action
[2]
  IC50: 3.2 ± 0.6 nM
[3]; 0.5 h
  ED50: 0.11 mg/kg
[3]; 2 h
  ED50: 0.08 mg/kg
[3]; 4 h
  ED50: 0.09 mg/kg
